Literature values as cited in patent US20190281871A1, “CHICORY PRODUCTS CONTAINING CANNABINOIDS” (Full Spectrum Laboratories Ltd, priority 2016, published 2019).

Experiments:
5-HT1A receptor = biological target: T1, 5-HT1A receptor (Homo sapiens, UniProt P08908)
T1 sequence (P08908 1-422): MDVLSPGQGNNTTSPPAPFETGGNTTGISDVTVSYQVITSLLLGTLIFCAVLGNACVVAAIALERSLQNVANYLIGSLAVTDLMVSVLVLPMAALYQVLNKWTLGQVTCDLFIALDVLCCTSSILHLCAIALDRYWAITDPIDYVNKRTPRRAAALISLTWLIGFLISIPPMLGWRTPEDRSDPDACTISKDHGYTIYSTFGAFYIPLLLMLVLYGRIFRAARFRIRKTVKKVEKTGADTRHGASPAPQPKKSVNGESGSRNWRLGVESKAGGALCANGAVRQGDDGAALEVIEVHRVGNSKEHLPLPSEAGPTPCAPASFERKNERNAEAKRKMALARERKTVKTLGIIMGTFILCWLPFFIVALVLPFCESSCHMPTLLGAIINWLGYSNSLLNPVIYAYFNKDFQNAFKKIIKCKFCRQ

CB1 receptor = CB1 receptor (Homo sapiens, UniProt P21554)
Sequence of CB1 receptor (P21554 whole entry): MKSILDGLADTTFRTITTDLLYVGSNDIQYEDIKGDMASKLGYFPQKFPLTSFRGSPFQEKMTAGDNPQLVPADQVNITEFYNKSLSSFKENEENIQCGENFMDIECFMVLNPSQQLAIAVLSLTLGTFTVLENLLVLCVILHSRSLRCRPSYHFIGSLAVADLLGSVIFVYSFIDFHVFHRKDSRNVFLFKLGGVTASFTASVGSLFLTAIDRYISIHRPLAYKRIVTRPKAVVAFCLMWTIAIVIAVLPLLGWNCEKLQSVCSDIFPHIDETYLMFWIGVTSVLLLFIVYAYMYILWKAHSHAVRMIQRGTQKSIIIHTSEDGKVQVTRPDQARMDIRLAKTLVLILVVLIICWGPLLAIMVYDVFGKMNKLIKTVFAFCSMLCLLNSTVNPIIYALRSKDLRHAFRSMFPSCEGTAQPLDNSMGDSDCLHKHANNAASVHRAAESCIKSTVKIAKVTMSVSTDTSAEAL

Structure (SMILES): CCCCCc1cc(O)c(C/C=C(\C)CCC=C(C)C)c(O)c1 [CBG, cannabigerol]
- 5-HT1A receptor antagonist affinity (5-HT1A receptor): moderate affinity
- α2-adrenergic receptor agonist affinity (α2-adrenergic receptor): high affinity
- CB1 receptor antagonist affinity (CB1 receptor): low affinity
